# Reference: patent US20080254490A1, “Salivary Protease Assays for Identifying Increased Risk of Preterm Delivery Induced by Premature Rupture of Fetal Membranes” (priority 2005, published 2008)
# Assays:
# [1] = tested on: sheddases, proteinases of the ADAM family; details: cited from earlier work
# [2] = tested on: metalloproteinase activity in human saliva samples; experiment: Proteinase activity assay in saliva with DQ-gelatin (fluorometry); assay type: biochemical; details: compared with BB-94
# Description: Proteinase activity assay: Total proteolytic activity in saliva samples was measured by fluorometry using the generic substrate DQ-gelatin (Molecular Probes Inc). An aliquot (usually 50 μl per 160 μl total assay volume) of each sample was mixed with substrate (10 μg/ml) in tricine buffer (50 mM Tricine, pH 7.4; 200 mM NaCl; 10 mM CaCl2; 0.05 mM ZnSO4; 0.005% Brij 35) and incubated at 37° C. An inhibitor cocktail comprising of inhibitors of serine, cysteine and aspartyl proteinases (‘Complete—EDTA free’, Roche Biochemicals, San Diego, Calif.) was included in the reactions for all the human saliva samples. Fluorometric measurements (excitation at 485 nm and emission at 538 nm) recorded every 10-20 minutes for 2 hours. These values were used to calculate an initial rate of enzyme activity (Fluorescence units/minute) which, for the murine samples, was then normalized for amylase concentration. To measure non-metalloproteinase activity, EDTA at a concentration of 30 mM was included in the assay mixture. Metalloproteinase (MP) activity was then determined as total less the EDTA-inhibited activity. Similarly, matrix metalloproteinase (MMP) activity, defined as the BB-94-inhibitible activity, was determined by subtracting the activity in the presence of BB-94 (25 μM) from total proteinase activity. […]
# [3] = tested on: MMP9 specific bands (gelatinolytic activity) in saliva; details: control gels treated with EDTA
# Description: Zymography: 20 μl of each saliva sample was mixed with 5 μl of a sample buffer containing 250 mM Tris pH 6.8, 25% glycerol, 10% (w/v) SDS, 0.01% bromophenol blue and loaded onto 10% SDS-PAGE gels containing 0.25% porcine gelatin (Sigma). Molecular weight markers (Biowhittaker Molecular Applications, Rockland, Me., USA) and a positive control sample of conditioned medium from the human fibrosarcoma cell line HT-1080 were also included on the gel. Following electrophoresis, the gels were washed twice for 15 mins each in 2.5% Triton X-100 and then incubated overnight at 37° C. in a substrate buffer containing 50 mM Tris-HCl, pH 7.6 and 10 mM CaCl2 in the absence or presence of proteinase inhibitors EDTA (30 mM), BB-94 (20 μM), BMS-275291 (20 μM) or B428 (20 μM). Following incubation, the gels were stained with a solution of 0.5% (w/v) Coomassie Blue R250 prepared in 50% methanol: 10% acetic acid. Once stained, the gels were briefly de-stained in the same solution without the Coomassie Blue and then stored in distilled water. Areas of gelatinolytic activity appeared cleared against the blue background of the coomassie-stained undigested gelatin.
structure (smiles),measurement,setting,value
CNC(=O)[C@H](Cc1ccccc1)NC(=O)[C@H](CC(C)C)[C@H](CSc1cccs1)C(=O)NO [BB-94],activity against sheddases,[1],activity against sheddases
CNC(=O)[C@@H](NC(=O)[C@H](CC(C)C)NC(=O)[C@@H](S)CCN1C(=O)N(C)C(C)(C)C1=O)C(C)(C)C [BMS-275291],inhibition of salivary metalloproteinase activity (DQ-gelatin cleavage),[2],results comparable to those with BB-94
O=C(O)CN(CCN(CC(=O)O)CC(=O)O)CC(=O)O [EDTA],gelatinolytic bands on zymography gels,[3],showed no bands
